# Assay results reported in US20180072675A1, “ANTIMICROBIAL PYRIDINOHYDRAZIDE AND HYDRAZOMETHYLPYRIDINE-BASED AGENTS” (Board of Supervisors of Louisiana State University and …, priority 2015, published 2018).
# How the values were obtained:
# [1] = tested on: C. albicans clinical isolate 1 (TW1); test: MIC80 fungal growth inhibition, clinical isolate TW1; assay type: cell-based, Candida albicans; details: Azole-susceptible, >80% growth inhibition, visual scoring; for MIC80: Candida albicans, read-out: MIC80 TW1
# Experimental: (§1) The antifungal activity of the pyridinohydrazide and hydrazomethylpyridine derivatives described in the s were evaluated in vitro using Candida albicans (ATCC Accession No. 10231) and Candida glabrata (ATCC Accession No. 48435). In addition, the compounds were evaluated for activity against two previously-described clinical isolates of C. albicans known to have developed azole-resistance. These isolates were obtained over a two year period from a single AIDS patient and the development of the azole-resistance mechanisms have been extensively characterized (White T C. Antimicrob. Agents Chemother. (1997) 41: 1482-1487). MIC assays were performed on the clinical isolates 1 and 17 (annotated TW1 and TW17, respectively), where isolate 1 was used as an azole-susceptible control and isolate 17 was considered azole-resistant. All assays were done in accordance with NCCLS reference documents (Clinical Laboratory and Standards Institute. Reference method for Broth Dilution Antifungal Susceptibility Testing of Yeasts: Approved Standard. M27-A3 2010; 28). The results of these screenings are summarized in Tables 1-9 (Examples 20-27) as the minimum concentrations that inhibited more than 80% of fungal growth (MIC80) as compared to positive controls containing 1% DMSO. Assays were performed in HEPES-buffered RPMI-1640 media. All MIC screens used a visual scoring method as opposed to spectroscopic analysis, due to the altered absorbance spectra of many of the compounds.
# [2] = tested on: Candida albicans (ATCC Accession No. 10231); test: MIC80 fungal growth inhibition, C. albicans ATCC 10231; assay type: cell-based; details: Azole-susceptible, >80% growth inhibition, visual scoring; for MIC80: Candida albicans, ATCC10231, read-out: MIC80 C. albicans ATCC No. 10231
# Experimental: as §1
# [3] = tested on: Candida glabrata (ATCC Accession No. 48435); test: MIC80 fungal growth inhibition, C. glabrata ATCC 48435; assay type: cell-based; details: for MIC80: Nakaseomyces glabratus, ATCC48435, read-out: MIC80 C. glabrata ATCC No. 48435; for MIC80 / MIC80 C. glabrata ATCC No. 48435: Azole-resistant, >80% growth inhibition, visual scoring
# Experimental: as §1
# [4] = tested on: C. albicans clinical isolate 17 (TW17); test: MIC80 fungal growth inhibition, clinical isolate TW17; assay type: cell-based, Candida albicans; details: Azole-resistant, >80% growth inhibition, visual scoring; for MIC80: Candida albicans, read-out: MIC80 TW17
# Experimental: as §1
# Candida strain TW17 = test: Time-kill assay; assay type: cell-based, Candida albicans; details: four times the MIC for TW17, 48 h
# Experimental: FIG. 9 illustrates time-kill assays, for representative analogs that were active against the azole-resistant TW17, to determine the cidal or static nature of the analog tested. 100 μl of each sample was spread onto YM agar plates with a sterile bent spreading rod. Plates were incubated at 35° C. overnight and colonies were then counted on each plate.
# One of the objectives of this study was to determine the cidal or static nature of the analogs that were active against such as TW17, the azole-resistant clinical isolate. Azoles affect Candida spp. by inhibiting ergosterol biosynthesis, and ultimately prevent their reproduction. This effect has led to the classification of azoles as fungistats. Determining the fungistatic or fungicidal nature of the synthesized compounds of the present disclosure allows a comparison to azoles, in addition to improving the understanding of how the structural motifs might lend toward an alternate mechanism of action. Therefore, time-kill assays were performed using the representative analogs that were active against the azole-resistant TW17 at concentrations at or below 8 μg/mL.
# Solid drugs were dissolved in DMSO to a concentration of 10 mg/ml. This stock solution was then further diluted in water to the desired experimental concentration, determined to be four times that of the MIC for the Candida strain TW17 (as reported in the Tables).
# Individual colonies of TW17 were suspended in 5 ml of sterile water and adjusted to achieve a McFarland reading between 0.08 and 0.12. The inoculum was then further diluted in sterile water at a ratio of 1:100. Three […] tissue culture tubes were prepared by combining 2.5 ml of above diluted inoculum, 21.7 ml of HEPES buffered RPMI-1640 media, and 800 μl of experimental drug dilution. A “Growth Control” tube was prepared by combining 2.5 ml of inoculum, 21.7 HEPES buffered RPMI-1640 media, and 800 μl of water-DMSO solution equal to the DMSO concentration of the experimental drug dilution. A “Sterile Control” tube was prepared by combining 24.2 ml of HEPES-buffered RPMI-1640 media and 800 μl of water-DMSO solution as in the “Growth Control”. All tubes were incubated for 48 hours at 35° C., 50 rpm. 500 μl samples were taken from the tubes at time points of predetermined intervals during this incubation.
# Time points for the “Kill-Curve” and “Growth Control” tubes were taken at 0, 1, 2, 4, 6, 8, 24, and 48 h after the start of incubation. Time points for “Sterile Control” were taken at 0 and 48 hours. Each time point sample was serially diluted 1:10 in sterile 0.9% NaCl solution up to 5 times. 100 μl of each sample was spread onto YM agar plates with a sterile bent spreading rod. Plates were incubated at 35° C. overnight and colonies were then counted on each plate. Colonies on plates from diluted time points were used to estimate uncountable undiluted samples. The number of colonies in undiluted samples was estimated to be 10^n times greater than the diluted sample, where n was the number of dilutions made.
# [5] = tested on: Candida albicans ATCC Accession No. 10231; test: Checkerboard synergy assay with fluconazole; assay type: cell-based
# Experimental: Considering that two different modes of activity (cidal and static) were observed depending on the structural motifs present in our analogs, we performed a series of checkerboard assays to determine if representative active compounds were in fact acting in synergy with the azole, fluconazole. Each of these assays tested multiple concentrations of the selected analog in the presence of multiple concentrations of fluconazole. All checkerboard assays were prepared in 96-well plates. 200 μl of previously prepared drug solutions were added to each well in column 2. Using a multichannel pipette, 100 μl from each well in column 2 was serially diluted (1:2) horizontally across the plate, stopping at column 10. Contents of each well were mixed thoroughly. Column 11 was reserved for fluconazole MIC control and contained no other drug. 100 μl of media was added to each well, column 2-10. Each well was mixed thoroughly with a multichannel pipette. 100 μl was then removed and discarded from these wells. 100 μl of previously prepared fluconazole dilution was added to each well in row B. Using a multichannel pipette, 100 μl from each well was serially diluted (1:2) vertically down the plate, stopping at row F. Contents of each well were mixed thoroughly. Row G was reserved for tested drug MIC control and contained no fluconazole. Well G11 contained neither drug and served as a drug-free growth control. The final 100 μl from each well in row F was discarded.
# The fungal samples were prepared from glycerol stocks of Candida albicans ATCC Accession No. 10231. The inoculum's concentration was adjusted to a McFarland standard between 0.08 and 0.12. Inoculum was then diluted at a ratio of 1:37.5 in buffered media. 100 μl of inoculum-media solution was added to each well. Following inoculation, the 96-well plates were wrapped in parafilm to prevent evaporation and incubated for overnight at 35° C. After 18 h, the wells showing growth were recorded.
# Synergistic activity was determined based on the MIC read from these plates. The fractional inhibitory concentration (FIC) for a given well is the ratio of the minimum inhibitory concentration of one drug A in the presence another drug B to the minimum inhibitory concentration with only drug A. The FIC was calculated for the test drug in each of the wells along the growth/no-growth interface at varying concentrations of fluconazole, then these values were averaged to determine the average FIC for the test drug. The same process was used to calculate the average FIC for fluconazole at varying concentrations of the test drug. The sum of these two FICs gives the FIC index which can be used to determine the synergistic effect between the two drugs (Hsieh et al., Diagn. Microbiol. Infect. Dis. (1993) 16: 343-349). An FIC index value less than 1 indicated synergistic interactions between the two drugs while an FIC index value greater than or equal to 1 indicated antagonistic interactions.
SMILES,MIC80 [1] [mg/L],MIC80 [2] [mg/L],MIC80 [3] [mg/L],MIC80 [4] [mg/L],MIC80 TW1 [1] [mg/L],MIC80 TW17 [4] [mg/L],MIC80 C. albicans ATCC No. 10231 [2] [mg/L],MIC80 C. glabrata ATCC No. 48435 [3] [mg/L],other results
"O=C(N/N=C/c1ccccc1O)c1ccccn1 [AR1, (E)-N′-(2-hydroxybenzylidene)picolinohydrazide]",62,16,8,,,,,,
"COc1ccc(O)c(/C=N/NC(=O)c2ccccn2)c1 [AR3, (E)-N′-(2-Hydroxy-5-methoxybenzylidene)picolinohydrazide]",8,4,1,31,,,,,
"O=C(N/N=C/c1cc([N+](=O)[O-])ccc1O)c1ccccn1 [AR6, (E)-N′-(2-hydroxy-5-nitrobenzylidene)picolinohydrazide]",8,4,8,8,,,,,"Cidal vs Static (Candida strain TW17): Static; FIC Fluc ([5]; average FIC of fluconazole at varying concentrations of the test drug): 1.00; FIC Test ([5]; average FIC of the test drug at varying concentrations of fluconazole): 1.00; Activity (interaction with fluconazole) ([5]; from FIC index): Antagonistic; FIC Index ([5]; sum of the two FICs, <1 synergistic, >=1 antagonistic): 2.00"
O=C(N/N=C/c1ccccc1O)c1cccnc1 [AR7],4,4,16,31,,,,,
COc1ccc(O)c(/C=N/NC(=O)c2cccnc2)c1 [AR9],,,,,16,4,62,4,
O=C(N/N=C/c1cc(Cl)ccc1O)c1cccnc1 [AR10],8,4,8,62,,,,,
O=C(NN=Cc1cc(Br)ccc1O)c1cccnc1 [AR11],,,,,8,16,4,16,
O=C(NN=Cc1ccccc1O)c1ccncc1 [AR13],,,,,4,31,8,16,
Cc1ccc(O)c(C=NNC(=O)c2ccncc2)c1 [AR14],,,,,16,31,4,31,
COc1ccc(O)c(/C=N/NC(=O)c2ccncc2)c1 [AR15],16,4,4,16,,,,,
O=C(NN=Cc1cc(Cl)ccc1O)c1ccncc1 [AR16],,,,,16,125,31,16,
O=C(NN=Cc1cc(Br)ccc1O)c1ccncc1 [AR17],,,,,16,125,16,64,
Cc1ccc(O)c(/C=N/NC(=O)c2cccnc2O)c1 [AR20],,,2,,,,,,
O=C(NN=Cc1cc(Br)ccc1O)c1cccnc1O [AR22],,,,,,,,0.5,potency against Candida glabrata (in words) [3]: one of the most potent compounds
O=C(NN=Cc1ccccc1O)c1ccc[n+]([O-])c1 [AR23],,,,,31,31,31,16,
Cc1ccc(O)c(C=NNC(=O)c2ccc[n+]([O-])c2)c1 [AR24],,,,,16,16,16,31,
COc1ccc(O)c(/C=N/NC(=O)c2ccc[n+]([O-])c2)c1 [AR25],62,16,4,31,,,,,
O=C(N/N=C/c1cc(Cl)ccc1O)c1ccc[n+]([O-])c1 [AR26],31,16,4,31,,,,,
O=C(NN=Cc1ccccn1)c1ccccc1 [AR31],,,,,31,62,62,62,
O=C(NN=Cc1ccccn1)c1ccccc1O [AR32],,,,,31,62,31,4,
O=C(NN=Cc1ccccn1)c1cccnc1 [AR35],,,,,62,62,125,125,
O=C(NN=Cc1ccccn1)c1ccncc1 [AR36],,,,,62,125,125,125,
O=C(NN=Cc1ccccn1)c1ccc[n+]([O-])c1 [AR38],,,,,62,125,125,125,
